Laboratory results: patent publication US4665068A, “Novel 9-chloro-1,5-benzothiazepine derivatives and their pharmaceutical use” (Tanabe Seiyaku Co., Ltd., priority 1984, dated 1987)
Structures can show the parent of a compound that is named as a salt.

Tests used:
[1] = system: spontaneously hypertensive rats (SHR); assay: Hypotensive activity, systolic blood pressure of SHR after oral dosing (tail plethysmographic technique); format: in vivo, rat (spontaneously hypertensive; conditions: 30 mg/kg oral
Description: A test compound (dose: 30 mg/kg) dissolved or suspended in water was administered orally to spontaneously hypertensive rats (SHR) (one group: 3 rats) fasted overnight. […] The hypotensive activity of the test compound was estimated at one or 4 hours after dosing and expressed as "-" if the decrease in blood pressure is less than 10 mm Hg; "+" if the decrease is not less than 10 mm Hg but less than 20 mm Hg; "++" if the decrease is not less than 20 mm Hg but less than 40 mm Hg; "+++" if the decrease is not less than 40 mm Hg but less than 60 mm Hg; or "++++" if the decrease is not less than 60 mm Hg.

[2] = system: platelet aggregation; assay: Platelet aggregation-inhibiting activity (collagen, platelet-rich plasma, Born's method); format: cell-based, rat (male Sprague-Dawley); design: key to the marks not given beside the values; conditions: final concentration 100 μg/ml, rat PRP, 37° C.
Excerpt: (Platelet aggregation-inhibiting activity)
Blood was collected from the abdominal aorta of male Sprague-Dawley rats which were anesthetized with ether. Nine volumes of rat blood were mixed with one volume of an aqueous trisodium citrate solution, and the mixture was centrifuged to give platelet-rich plasma ("PRP") as the supernatant solution. The bottom layer was further centrifuged to give platelet-poor plasma ("PPP") as the supernatant solution. Platelet counts were adjusted to 0.8-1×10^6 /mm^3 for PRP by dilution with PPP. After a mixture of 200 μl of the diluted PRP and 25 μl of a test compound solution (final concentration: 100 μg/ml) was stirred for 2 minutes at 37° C., 25 μl of a collagen solution [Biochim. Biophys.

[3] = system: coronary blood flow of the isolated heart of guinea pig; assay: Coronary vasodilating activity, Langendorff's method, isolated heart of guinea pig; conditions: for Coronary vasodilating activity: isolated guinea pig heart
Excerpt: (§1) On the other hand, when the coronary vasodilating activity is estimated by the Langendorff method using isolated hearts of guinea pigs, said activity of (+)-cis-2-(4-methoxyphenyl)-3-acetoxy-5-[2-(dimethylamino)ethyl]-9-chloro- 2,3-dihydro-1,5-benzothiazepin-4(5H)-one hydrochloride is about 10 times stronger than that of papaverine.
(Coronary vasodilating activity)
Langendorff's method was used for testing the effect on the coronary blood flow of the isolated heart of guinea pig (about 280 g). The isolated heart was perfused with Locke-Ringer solution containing 2% of defibrinated rabbit blood, which had been saturated with a mixed gas of 95% O2 and 5% CO2 (30° C.). Perfusion pressure was kept at 40 cm H2 O. A solution of a test compound in an aqueous 5% glucose solution was injected into the perfusing solution at a volume of 0.1 ml per heart. The outflow of the perfusate was measured by means of a drop counter.
The coronary vasodilating activity of the test compound was expressed as "±" if the increase in coronary blood flow is less than 0.5 ml/minute at a dose of 100 μg/heart; "+" if the increase is not less than 0.5 ml/minute at a dose of 100 μg/heart; "++" if the increase is not less than 0.5 ml/minute at a dose of 30 μg/heart; and "+++" if the increase is not less than 0.5 ml/minute at a dose of not more than 10 μg/heart.

[4] = system: vertebral artery blood flow; assay: Cerebral vasodilating activity, blood flow in vertebral artery of anesthetized dogs; format: in vivo, dog (male); conditions: for increase in vertebral artery blood flow / cerebral vasodilating activity, times stronger than the 7-chloro derivative: intraarterial; for cerebral vasodilating activity, times stronger than the 7-chloro derivative: vs (±)-cis-3-acetoxy-7-chloro derivative hydrochloride; for Cerebral vasodilating activity (potency ratio): potency ratio to papaverine from dose-response curves, injected into vertebral artery
Description: as §1
(Cerebral vasodilating activity)
Male dogs weighing 10 to 20 kg were anesthetized with sodium pentobarbital (30 mg/kg, intravenous injection). The blood flow in vertebral artery was measured continuously by means of an electromagnetic flowmeter under artificial respiration. A test compound dissolved in an aqueous 5% glucose solution was injected into vertebral artery. The cerebral vasodilating activity of the test compound was estimated in terms of the potency ratio of said compound to papaverine, which was calculated from the dose-response curves thereof.

[5] = Acute toxicity, oral, mice; conditions: mouse, in vivo
Description: For example, the acute toxicity (LD50) of (+)-cis-2-(4-methoxypnenyl)-3-acetoxy-5-[2-(dimethylamino)ethyl]-9-chloro- 2,3-dihydro-1,5-benzothiazepin-4(5H)-one hydrochloride when orally administered to mice is about 1,000 mg/kg.

SMILES | Hypotensive activity, 1 hr after dosing [1] | Hypotensive activity, 4 hrs after dosing [1] | Coronary vasodilating activity [3] | Cerebral vasodilating activity (potency ratio) [4] | other results
COc1ccc([C@@H]2Sc3c(Cl)cccc3N(CCN(C)C)C(=O)[C@@H]2OC(C)=O)cc1.Cl (racemic) [(±)-cis-2-(4-methoxyphenyl)-3-acetoxy-5-[2-(dimethylamino)ethyl]-9-chloro-2,3-dihydro-1,5-benzothiazepin-4(5H)-one hydrochloride] | +++ (decrease is not less than 40 mm Hg but less than 60 mm Hg) | +++ (decrease is not less than 40 mm Hg but less than 60 mm Hg) | +++ (increase is not less than 0.5 ml/minute at a dose of not more than 10 μg/heart) | – | Platelet aggregation-inhibiting activity [2]: ++
COc1ccc([C@@H]2Sc3c(Cl)cccc3N(CCN(C)C)C(=O)[C@@H]2O)cc1.[O-][Cl+3]([O-])([O-])O (single isomer, unassigned) [(+)-cis-2-(4-methoxyphenyl)-3-hydroxy-5-[2-(dimethylamino)ethyl]-9-chloro-2,3-dihydro-1,5-benzothiazepin-4(5H)-one perchlorate] | +++ (decrease is not less than 40 mm Hg but less than 60 mm Hg) | ++ (decrease is not less than 20 mm Hg but less than 40 mm Hg) | +++ (increase is not less than 0.5 ml/minute at a dose of not more than 10 μg/heart) | 22 | increase in vertebral artery blood flow [4]: remarkable increase in vertebral artery blood flow; cerebral vasodilating activity, times stronger than the 7-chloro derivative [4]: more than 3 times
COc1ccc(Cc2nccc3cc(OC)c(OC)cc23)cc1OC [Papaverine, reference compound] | – | – | + (increase is not less than 0.5 ml/minute at a dose of 100 μg/heart) | – | –
COc1ccc([C@@H]2Sc3c(Cl)cccc3N(CCN(C)C)C(=O)[C@@H]2O)cc1.Cl (racemic) [(±)-cis-2-(4-methoxyphenyl)-3-hydroxy-5-[2-(dimethylamino)ethyl]-9-chloro-2,3-dihydro-1,5-benzothiazepin-4(5H)-one hydrochloride] | – | – | +++ (increase is not less than 0.5 ml/minute at a dose of not more than 10 μg/heart) | – | Platelet aggregation-inhibiting activity [2]: ++
COc1ccc([C@@H]2Sc3c(Cl)cccc3N(CCN(C)C)C(=O)[C@@H]2OC(C)=O)cc1.Cl (single isomer, unassigned) [(+)-cis-2-(4-methoxyphenyl)-3-acetoxy-5-[2-(dimethylamino)ethyl]-9-chloro-2,3-dihydro-1,5-benzothiazepin-4(5H)-one hydrochloride] | ++++ (decrease is not less than 60 mm Hg) | +++ (decrease is not less than 40 mm Hg but less than 60 mm Hg) | +++ (increase is not less than 0.5 ml/minute at a dose of not more than 10 μg/heart) | 15 | decrease in blood pressure, one hour after administration ([1]; 1 hour): about 74 mm Hg; decrease in blood pressure, 4 hours after administration ([1]; 4 hours): ~54 mm Hg; increase in vertebral artery blood flow [4]: remarkable increase in vertebral artery blood flow; cerebral vasodilating activity, times stronger than the 7-chloro derivative [4]: more than 3 times; LD50 [5]: ~1000 mg/kg; coronary vasodilating activity, times stronger than papaverine ([3]; isolated guinea pig hearts, vs papaverine): about 10 times
COc1ccc([C@@H]2Sc3ccc(Cl)cc3N(CCN(C)C)C(=O)[C@@H]2OC(C)=O)cc1 (relative stereo) [(+)-cis-2-(4-methoxyphenyl)-3-acetoxy-5-[2-(dimethylamino)ethyl]-7-chloro-2,3-dihydro-1,5-benzothiazepin-4(5H)--one hydrochloride, reference compound] | ++ (decrease is not less than 20 mm Hg but less than 40 mm Hg) | + (decrease is not less than 10 mm Hg but less than 20 mm Hg) | – | – | –
COc1ccc([C@@H]2Sc3ccc(Cl)cc3N(CCN(C)C)C(=O)[C@@H]2OC(C)=O)cc1.Cl (racemic) [(±)-cis-2-(4-methoxyphenyl)-3-acetoxy-5-[2-(dimethylamino)ethyl]-7-chloro-2,3-dihydro-1,5-benzothiazepin-4(5H)-one hydrochloride, reference compound] | – | – | – | 5 | –
